A short description of data set [1]: in-vitro release (dissolution) of the actives from the bilayer tablet, USP paddle method. The conditions noted are these: 900 ml phosphate buffer pH 7.2, 37° C., 50 RPM. In kind it is physicochemical. Here is the method:
Therefore, the release profiles of the actives are as follows; the maximum 40% of total amount of flurbiprofen is released in 2 hours and 50-80% in 6 hours and at least 75% in 8 hours in 900 ml of phosphate buffer at pH 7.2 at 37° C. using USP paddle method rotating at 50 RPM. Glucosamine is released immediately and minimum 75% of the total amount is dissolved in 60 min.

The conditions of data set [2]: cited from earlier work.

Structures are written as SMILES.

As for `CC(C(=O)O)c1ccc(-c2ccccc2)c(F)c1` (stereo not drawn) [flurbiprofen, Flurbiprofen], the “total amount of flurbiprofen released” value is ≤ 40% in data set [1] (in 2 hours) and 50-80% in data set [1] (in 6 hours). The solubility in water entry in data set [2] is on record as “practically insoluble”.

The values above are taken from patent US20140377350A1, “BILAYER TABLET FORMULATIONS OF FLURBIPROFEN AND GLUCOSAMIN” (Sanovel Ilac Sanayi Ve Ticaret Anonim Sirketi, priority 2012, published 2014).
